Source: US11278509B2, “Lithium salts of N-substituted glycine compounds and uses thereof” (SyneuRx International (Taiwan) Corp., priority 2017, dated 2022)

What was measured:
Format in all cases: in vivo, C57BL/6J male mice
[1] = system: MK801-treated mice; test: Pre-pulse inhibition task, sensorimotor gating
Experimental: (§1) All C57BL/6J male mice were purchased from Laboratory Animal Center of the College of Medicine of National Taiwan University. The mice were group housed (3-5 mice per cage) with food and water available ad libitum in polysulfone ventilated cages (Alternative Design, AR, USA) in the animal rooms of the Psychology Department of National Taiwan University. The colony was maintained on a 12/12-h light/dark cycle at the temperature of 22±2° C. and all behavioral studies were performed during dark cycle. All animals used in this study were adult mice (at least 2.5 months of age). All animal procedures were performed according to the protocols approved by Animal Care and Use Committee of National Taiwan University.
MK801, also known as dizocilpine, is an antagonist of NMDA receptor. Mice in Groups 2-6 were received an acute administration of MK-801 (a NMDA receptor antagonist, dissolved in normal saline, 0.1 or 0.2 mg/kg, i.p.) 20 min prior to behavioral tests. […]
Pre-pulse inhibition was used as an index of sensorimotor gating function using SR-LAB startle apparatus (San Diego Instruments, San Diego, Calif., USA). […] The percentage of pre-pulse inhibition was evaluated by the following formula: % PPI=100×[(PA score)−(pp-P score)]/(PA score), where the PA score was the average of the PA value in the middle blocks.

[2] = system: MK801-treated mice; test: Open field task, MK801-induced hyper-locomotion; details: for effect on MK-801 induced hyper-locomotion activity (travel distance, open field): 60 minutes
Experimental: as §1
(§2) MK801, also known as dizocilpine, is an antagonist of NMDA receptor. Mice in Groups 2-6 were received an acute administration of MK-801 (a NMDA receptor antagonist, dissolved in normal saline, 0.1 or 0.2 mg/kg, i.p.) 20 min prior to behavioral tests. Mice in Groups 3-6 were received an oral gavage of N-methylglycine or lithium N-methylglycine, respectively (dissolved in PBS) 15 min prior to MK801 administration. The […] molarities of lithium N-methylglycine (300 mg/kg and 1000 mg/kg) were equal to those of N-methylglycine (278 mg/kg and 927 mg/kg), respectively.
(§3) Two cohorts ([…]) of mice were used in the present study, the cohort 1 (48 mice) were sequentially tested with open field (for MK801-induced hyper-locomotion) and pre-pulse inhibition (for sensor-motor gap function) tasks. The mice in cohort 2 (34 mice) were sequentially tested with Barnes maze (spatial learning and memory) task.
The open field task is a common measure of novel environment-induced exploratory behavior and general activity in both mice and rats. In the present study, the mice were placed in a Plexiglas cage (37.5 cm×21.5 cm×18 cm) under 50-65 lux light intensity, and their spontaneous locomotor activity was measured for 60 minutes using the EthoVision video tracking system (Noldus Information Technology, the Netherlands). The travel distance of each mouse was measured as an index of locomotion activity.

[3] = system: MK801-treated mice; test: Barnes maze task, spatial learning and memory; details: MK-801 0.2 mg/kg i.p.
Experimental: as §1, §2, §3
Mice were tested in a Barnes maze to examine spatial learning and memory as described previously (Barnes, 1979). This Barnes maze paradigm has been commonly examined in mouse models of CNS disorders, including, but not limited to, schizophrenia, depression, obsessive compulsive disorder, post-traumatic stress disorder, addiction disorders, Alzheimer's disease, frontotemporal dementia, Parkinson's disease, Duchenne muscular dystrophy, stroke, and Fragile X syndrome (see Cook et al., 2014; Gotz and Ittner, 2008; Hendriksen and Vles, 2008; Conklin et al., 2000; Song et al., 2006; Lai et al., 2014; Vasterling et al., 2002; Hyman, 2005; Schaar et al., 2010; Santos et al., 2014; Zhu et al., 2007; Deckersbach et al., 2000). The testing apparatus was an elevated (50 cm above the floor) circular Plexiglas plate (100 cm in diameter) with 20 holes (7 cm in diameter, 7 cm between holes) evenly spaced around the perimeter. Mice were trained on the plate to identify an escape box (25×8×6 cm) hidden behind the target hole, which was designated as an analog to the hidden platform in the Morris water maze task. The location of the target hole was selected for a given mouse but randomized across mice. Mice were initially placed in the center of the plate covered by an opaque cylinder, and the cylinder was removed 10 s after the beginning of the trial with both an aversive tone (440 Hz, 85 dB) and light (100 lux) switched on. […] The spatial memory was measured by the “probe test.” All the training trials and the probe tests were videotaped for 3 min, and then the escape latency for the training trials and the percentage of time in different quadrants (target, left, right, and opposite) during the probe test were analyzed. […]

[4] = MK-801 0.1 or 0.2 mg/kg i.p. 20 min prior to test

C[C@]12N[C@H](Cc3ccccc31)c1ccccc12 [MK-801, dizocilpine, reference compound]
sensorimotor gating function in the pre-pulse inhibition test compared to the control group [1, 4]: induced the sensorimotor gating function deficit
locomotion in the open field test compared to the control group [2, 4]: induced the hyper-locomotion
learning ability and memory in the Barnes maze task compared to the control group [3]: poor learning ability and memory deficit

CNCC(=O)O [N-methylglycine, reference compound]
effect on MK-801 induced hyper-locomotion activity (travel distance, open field) ([2]; 927 mg/kg oral gavage 15 min prior to MK801 i.p.): marginally effective
memory phase (probe test) after MK-801 induced memory deficit ([3]; dose not stated): not effective

CNCC(=O)O.[Li] [lithium N-methylglycine]
effect on MK-801 induced deficit in pre-pulse inhibition (% PPI) ([1]; 300 mg/kg and 1000 mg/kg oral gavage + MK801, prepulse 78, 82, 90 dB, especially at 90 dB): alleviated
dose dependence of effect on MK-801 induced hyper-locomotion ([2]; 300 mg/kg and 1000 mg/kg oral gavage + MK-801): Dose-dependent effect
effect on MK-801 induced hyper-locomotion activity (travel distance, open field) ([2]; 300 mg/kg oral gavage 15 min prior to MK801 i.p.): effective
effect on MK-801 induced hyper-locomotion activity (travel distance, open field) ([2]; 1000 mg/kg oral gavage 15 min prior to MK801 i.p.): effective
reducing hyperactivity induced by MK-801, compared with N-methylglycine ([2]; equal molarities: 300/1000 mg/kg vs 278/927 mg/kg): much more effective than N-methylglycine
learning phase (escape latency in training trials) after MK-801 induced learning deficit ([3]; 1000 mg/kg oral gavage): enhances the learning
recovery of memory deficit induced by MK-801, compared with N-methylglycine [3]: much superior as compared with N-methylglycine
memory phase (time in target zone, probe test) after MK-801 induced memory deficit ([3]; high dose (1000 mg/kg) oral gavage): completely ameliorated the memory deficit
